US8470779B2, “Catecholamine regulated protein” (CRP40 Inc., priority 2005, dated 2013)

Assays:
[1] = system: human CRP40 expression in DRD2 transfected SH-SY5Y human neuroblastoma cells; assay: Western immunoblotting of BQ/human CRP40 expression in DRD2 transfected SH-SY5Y cells; assay type: cell-based; conditions: 100 μM; for BQ expression compared to controls: overnight, DA D2 receptor transfected SH-SY5Y cells
Description: The pcDNA 3.1(+) vector was introduced into SH-S Y5 Y cells by lipofection method (Invitrogen Life Science technology. U.S.A.). Briefly, 24 μg of DRD2 plasmid DNA was mixed with 1.5 ml of Opti MEM media and 60 μl of lipofectamine 2000 reagent was added and mixed with 1.5 ml of Opti MEM media and SH-SY5Y cells. Geneticin-resistant clones stably expressing the D2L receptor were screened by a [3H] spirerone-binding assay and was maintained in RPMI medium (RPMI contained 10% fetal bovine serum, 1 mM glutamate, 50 U/ml of penicillin, and 50 U/ml of streptomycin) with 200 μg/ml of geneticin. Cells were grown to confluency (5-6 days following sub-culturing) in fresh RPMI medium.
SH-SY5Y cells were scraped off and this procedure was repeated a second time. The cells were incubated 5 min, centrifuged at 2000 rpm for 5 min and the supernatant was discarded. The pellet was re-suspended in 0.5 ml 0.35M sucrose buffer (wPMSF), homogenized and centrifuged at 1000 g for 10 min. The supernatant was centrifuged and the pellet was re-suspended in a 0.32M sucrose buffer (wPMSF), homogenized, and centrifuged. The pellet was re-suspended 0.053 ml Tris-EDTA PMSF and labeled as nuclear fraction 1. The supernatant was centrifuged and the resulting supernatant was stored and labeled cytosolic fraction 1. The remaining pellet was re-suspended in 0.150 ml Tris-EDT A-PMSF and labeled mitochondrial fraction 1.
The cells were exposed to the neurotransmitter and/or the neuroleptic (antipsychotic) and left overnight. Western immunoblotting with BQ primary antibody was performed, followed by immunoblotting with polyclonal conjugated horseradish peroxidase secondary antibody.

human CRP40 = assay: Immunohistochemistry localization of human CRP40 in post-mortem nucleus accumbens; conditions: post-mortem NA slide of schizophrenic patient treated with large doses of HAL
Description: Three slides were chosen from the 60 samples generously donated by The Stanley Foundation. The slides consisted of: 1) control; 2) schizophrenia patient-drug free; 3) schizophrenic patient-15000K, HAL-treated. The slides were incubated with 4% formaldehyde and diluted in PBS for 30 min. Immediately following, washed sections 3 times with PBS for 5 min, each time and dried off each slide as close as possible to the tissue and outlined the section with the hydrophobic pen. The sections were then blocked by incubating sections with 3% normal goat serum*(NGS) (diluted in PBS containing 0.6% Triton X-100) for 1 h. Next, incubated slides with primary human CRP40 polyclonal antibody diluted in PBS containing 0.6% Triton X-100 (and 3% NGS if necessary) overnight at 4° C. (wrapped in aluminum foil). The following day, the slides were washed 3 times with PBS for 5 min, each time, and incubated slides with FITC secondary antibody diluted in PBS containing 0.6% Triton X-100 for 4 h. Next, the sections were washed 6 times in PBS and slides were mounted with appropriate cover-slips and fixed with nail polish.
Three slides containing post mortem brain specimens of the NA were used in immunohistochemistry studies. […] The next day, the slides were analyzed using a confocal microscope (McMaster University).

[2] = target: T1, recombinant human CRP40 (BQ-fusion protein) (Homo sapiens, UniProt P38646); assay: [3H]-NPA protein-binding assay with BQ-fusion protein; conditions: 100 μM, third of three NPA entries
T1 construct: a fragment of 720 base pairs (Genbank #BQ224193) was amplified; GST (Schistosoma japonicum glutathione S-transferase, pGEX-2T) (N); made in house; host or cells: E. coli BL21 (pGEX-2T)
Description: Briefly, the assays were performed in triplicate and consisted of the following solutions and protocol: 50 mM TRIS, 5.0 mM mgCl2, 1.0 mM EDTA, 0.ImM DTT, 0.ImM PMSF, 100 mg/ml Bacitracin and 5.0 mg/ml soybean trypsin; DA (mw=189.6) was dissolved in 0.1% ascorbic acid; each tube was vortexed briefly and incubated in a shaking water bath at 37° C., for 2 h; receptor binding equipment (Brandel, U.S.A.) washed 3 times with distilled water; then repeated washes in assay buffer, 50 nM TRIS, 1 mM EDTA, pH 7.4; 18 test-tubes were set on the binding platform and fiberglass filter paper was put on the platform. The samples were passed through the filter paper with 3 consecutive washes; placed in the scintillation tubes and 5.0 ml Biodegradable Counting Scintillant was added and radioactive counts were measured (Amersham, U.S.A.).
The first protein binding study involved [3+H]NPA and 3 different concentrations of displacement molecules (DA, NPA), 100 μM, 10 μM and 1 μM, respectively. Following protein binding, DPM counts were performed in a Beckman scintillation counter.

[3] = system: 6-OHDA lesioned hemi-Parkinson's rat model; assay: Apomorphine-induced turning behaviour after striatal injection; assay type: in vivo; conditions: for apomorphine-induced rotational symptoms: striatal injection on lesioned side
Description: This research study examined the potential of CRP40 as a therapeutic in Parkinson's disease (PD). It has been shown herein that dopamine (DA) can modulate CRP40 expression. Further, knockdown of CRP40 in the medial prefrontal cortex (mPFC) caused deficits in DA-dependant behaviours related to human disease. This study investigated whether the introduction of CRP40 into the lesioned region of a rat model of PD would reduce or reverse symptoms associated with PD compared to control animals. This model is a well-established one in which the nigrostriatal system is hemi-laterally lesioned by injection of the cytotoxin 6-hydroxydopamine (6-OHDA). These animals show phenotypic rotating behaviour as a result of the hemi-lesion.
(§1) The treatment groups were the following: Group 1 (n=3; males) were hemi-lesioned animals treated with a sham injection (CSF) to the Striatum; Group 2 (n=3; males) were hemi-lesioned animals treated with Mortalin2 plasmid injection to the Striatum; Group 3 (n=3; males) were hemi-lesioned animals treated with CRP40 plasmid injection to the Striatum; Group 4 (n=2; males) were hemi-lesioned animals treated with Mortalin2 protein injection to the Striatum; Group 5 (n=2; males) were hemi-lesioned animals treated with CRP40 protein injection to the Striatum; Group 6 (n=3; males) were controls, non-lesioned, and received a CSF injection to the Striatum.
Once the animals were comfortable with the experimenter, they were subjected to a series of behavioural tests for baseline measures. In addition to the apomorphine-induced rotation, other tests included prepulse inhibition (PPI) and locomotor activity tests. The apomorphine-induced rotations test involves giving each animal a subcutaneous injection of apomorphine according to body weight. Since the animals are lesioned hemi-laterally at the nigrostriatal pathway, they show compulsive turning behaviour in a direction contra-lateral to the lesion. For this project, there was interest in the number of rotations each animal made in a ten minute testing period. PPI is a test of sensorimotor gating where animals are exposed to a startling acoustic pulse. This pulse, however, follows a subtle pre-pulse which allows for inhibition of the startle response. Locomotor activity test involves cubic chambers lined with infrared sensors that detect any and all movements made by the animal over a three hour testing period. For this experiment “total distance travelled” measurements were of interest.
Once all baseline data was collected, the rats were placed under gaseous anaesthesia and injected, via cannulae, with one of the five following treatments: CSF sham (Striatal n=3), CRP40 plasmid DNA (Striatal n=3), MOT-2 plasmid DNA (Striatal n=3), CRP40 protein (Striatal n=2), MOT-2 protein (Striatal n=2). […]

[4] = system: 6-OHDA lesioned hemi-Parkinson's rat model; assay: HPLC of DA levels in SN and striatum; assay type: in vivo; conditions: striatal-injected rats
Description: as §1
Once all baseline data was collected, the rats were placed under gaseous anaesthesia and injected, via cannulae, with one of the five following treatments: CSF sham (Striatal n=3), CRP40 plasmid DNA (Striatal n=3), MOT-2 plasmid DNA (Striatal n=3), CRP40 protein (Striatal n=2), MOT-2 protein (Striatal n=2).
After recovery from surgery, all animals were again tested using the same behavioural methods for post-intervention measures. PPI and locomotor activity were tested at 7 and 14 days post-injection, and apomorphine-induced rotation was tested at various time points between days 2 and 14 post-injection. On day 15 post-injection, all rats were sacrificed. […]

T1 sequence (P38646 334-578 E571K/D572N/R574P): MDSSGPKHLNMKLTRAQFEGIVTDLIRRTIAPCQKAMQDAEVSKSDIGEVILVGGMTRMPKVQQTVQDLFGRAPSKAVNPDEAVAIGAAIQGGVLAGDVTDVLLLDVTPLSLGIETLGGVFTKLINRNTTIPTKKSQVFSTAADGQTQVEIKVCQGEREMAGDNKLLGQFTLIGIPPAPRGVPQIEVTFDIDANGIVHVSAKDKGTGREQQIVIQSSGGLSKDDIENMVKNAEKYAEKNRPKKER

NCCc1ccc(O)c(O)c1 [DA, dopamine]
human CRP40 protein expression in the nuclear fraction relative to control cells ([1]; SH-SY5Y nuclear fraction): significant increase
BQ expression compared to controls [1]: significant increase

O=C(CCCN1CCC(O)(c2ccc(Cl)cc2)CC1)c1ccc(F)cc1 [Haloperidol, haloperidol]
BQ expression compared to controls [1]: significant increase
localization of human CRP40 antibody staining (human CRP40): located almost exclusively within the nucleus

CCCN1CCc2cccc3c2[C@H]1Cc1ccc(O)c(O)c1-3 [NPA, N-propylnorapomorphine]
amount of displacement of [3H]NPA [2]: 64.3%

B1: CRP40 protein: 346 amino acid catecholamine-regulated protein, SEQ ID NO: 8 (protein, listed as Homo sapiens)
chain: MDSSGPKHLNMKLTRAQFEGIVTDLIRRTIAPCQKAMQDAEVSKSDIGEVILVGGMTRMPKVQQTVQDLFGRAPSKAVNPDEAVAIGAAIQGGVLAGDVTDVLLLDVTPLSLGIETLGGVFTKLINRNTTIPTKKSQVFSTAADGQTQVEIKVCQGEREMAGDNKLLGQFTLIGIPPAPRGVPQIEVTFDIDANGIVHVSAKDKGTGREQQIVIQSSGGLSKDDIENMVKNAEKYAEEDRRKKERVEAVNMAEGIIHDTETKMEEFKDQLPADECNKLKEEISKMRELLARKDSETGENIRQAASSLQQASLKLFEMAYKKMASEREGSGSSGTGEQKEDQKEEKQ
apomorphine-induced rotational symptoms ([3]; day 10 post-injection): alleviated
apomorphine-induced rotational symptoms ([3]; day 14 post-injection): beginning to increase again
apomorphine-induced rotational symptoms ([3]; days 4 and 7 post-injection): reversal of rotational symptoms
apomorphine-induced rotational symptoms, overall ([3]; striatal injection, no time point stated): completely reversed
levels of DA in the SN & striatum (HPLC) [4]: increase in dopamine concentration at both the SN and the striatum
